Laboratory results taken from US10196425B2, “Peptide compositions” (RHYTHM PHARMACEUTICALS, INC., priority 2013, dated 2019).
Read-outs that look alike come from different tables or passages of the source. Bridge positions count the residues as written; N and C are the ends. Square brackets hold non-standard residues; d marks the D form. Peptide text beside a SMILES is read from it. dPhe(4-F) = N[C@H](Cc1ccc(F)cc1)C(=O)O; hCys = N[C@@H](CCS)C(=O)O

Columns and labels:
Format in all cases: cell-based
MC1R = MC1R (Homo sapiens, UniProt Q01726); experiment: cAMP assay (β-galactosidase reporter, cAMP Hunter), MC1R; conditions: for Ratios of EC50 values MC ¼: EC50(MC1R)/EC50(MC4R)
MC1R, sequence (Q01726 whole entry): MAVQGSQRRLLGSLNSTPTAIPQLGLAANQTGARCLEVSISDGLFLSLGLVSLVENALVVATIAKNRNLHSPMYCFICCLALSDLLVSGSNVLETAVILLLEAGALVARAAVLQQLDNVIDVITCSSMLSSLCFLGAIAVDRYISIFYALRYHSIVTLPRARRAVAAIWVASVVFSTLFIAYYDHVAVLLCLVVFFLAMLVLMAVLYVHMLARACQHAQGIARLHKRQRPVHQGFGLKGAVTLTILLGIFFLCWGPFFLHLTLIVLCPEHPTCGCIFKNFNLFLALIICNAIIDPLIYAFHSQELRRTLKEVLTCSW
Text: (§1) cAMP Accumulation Measurement Via a β-Galactosidase (β-Gal) Reporter System
(§2) A chemiluminescence readout system that uses an enzyme fragment complementation (EFC) system with β-galactosidase (β-Gal) as the functional reporter system was used. This assay system for various melanocortin receptor systems is commercially available (cAMP Hunter GPCR assay system, Discoverx Corp, Fremont, Calif.). This assay utilizes the β-Gal enzyme that is split into two complementary portions; EA for Enzyme Acceptor and ED for Enzyme Donor. In the assay, the ED portion fused to cAMP is made to compete with cAMP generated by cells for binding to a cAMP-specific antibody. The EA is then added to form active β-Gal with any unbound ED-cAMP.
(§3) Briefly, 10000 cells per well are plated overnight and each well (cells incubated with 10 μl assay buffer) is then incubated with 4× serial concentration of the test compound in the cell assay buffer (5 μL) and cAMP antibody reagent (5 μL) for 30 min at 37° C. The cell lysis buffer (20 μL) containing ED-cAMP coupled enzyme fragment and the reporter substrate (Emerald II-Galacton Star, 5:1) is then added and incubated for 60 min at room temperature. Next, 20 μL of EA β-Gal fragment reagent is added.

MC4R = MC4R (Homo sapiens, UniProt P32245); experiment: cAMP assay (β-galactosidase reporter, cAMP Hunter), MC4R
MC4R, sequence (P32245 whole entry): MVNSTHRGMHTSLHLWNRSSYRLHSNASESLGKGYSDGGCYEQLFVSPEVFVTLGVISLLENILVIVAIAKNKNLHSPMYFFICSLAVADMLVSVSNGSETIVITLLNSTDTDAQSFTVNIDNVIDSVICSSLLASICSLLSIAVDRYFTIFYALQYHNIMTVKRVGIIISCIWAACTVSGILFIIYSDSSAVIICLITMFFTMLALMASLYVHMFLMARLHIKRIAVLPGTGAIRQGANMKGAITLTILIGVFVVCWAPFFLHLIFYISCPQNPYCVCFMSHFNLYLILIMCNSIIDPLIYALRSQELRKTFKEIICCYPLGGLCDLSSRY
Text: as §1, §2, §3

MC5R = MC5R (Homo sapiens, UniProt P33032); experiment: cAMP assay (β-galactosidase reporter, cAMP Hunter), MC5R; conditions: for Ratios of EC50 values MC 5/4: EC50(MC5R)/EC50(MC4R)
MC5R, sequence (P33032 whole entry): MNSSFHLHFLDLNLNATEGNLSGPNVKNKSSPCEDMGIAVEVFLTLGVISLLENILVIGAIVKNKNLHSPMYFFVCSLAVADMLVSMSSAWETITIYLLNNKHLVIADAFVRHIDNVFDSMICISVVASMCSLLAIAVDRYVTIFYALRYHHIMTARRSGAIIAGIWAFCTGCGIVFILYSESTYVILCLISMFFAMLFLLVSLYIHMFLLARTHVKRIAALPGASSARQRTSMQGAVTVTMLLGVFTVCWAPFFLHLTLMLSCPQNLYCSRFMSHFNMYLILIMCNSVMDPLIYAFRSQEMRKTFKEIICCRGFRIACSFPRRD
Text: as §1, §2, §3

MC3R = MC3R (Homo sapiens, UniProt P41968); experiment: cAMP assay (β-galactosidase reporter, cAMP Hunter), MC3R; conditions: for Ratios of EC50 values MC ¾: EC50(MC3R)/EC50(MC4R)
MC3R, sequence (P41968 whole entry): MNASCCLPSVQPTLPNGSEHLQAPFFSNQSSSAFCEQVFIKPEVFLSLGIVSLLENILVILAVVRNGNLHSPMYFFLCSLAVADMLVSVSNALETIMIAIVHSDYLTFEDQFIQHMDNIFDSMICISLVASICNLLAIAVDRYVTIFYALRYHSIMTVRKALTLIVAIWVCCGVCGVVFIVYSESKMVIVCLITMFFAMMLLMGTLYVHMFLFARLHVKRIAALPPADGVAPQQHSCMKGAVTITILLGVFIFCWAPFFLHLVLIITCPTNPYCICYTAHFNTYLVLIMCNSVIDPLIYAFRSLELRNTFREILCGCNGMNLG
Text: as §1, §2, §3

[1] = agonist cAMP stimulation, read-out: cAMP Assay (EC-50) MC1R
[2] = agonist cAMP stimulation, read-out: cAMP Assay (EC-50) MC4R
[3] = agonist cAMP stimulation, read-out: cAMP Assay (EC-50) MC5R
[4] = agonist cAMP stimulation, read-out: cAMP Assay (EC-50) MC3R
[5] = agonist cAMP stimulation, in uM, read-out: cAMP Assay (EC-50) MC3R

## CC(=O)N[C@@H](CCCNC(=N)N)C(=O)N[C@H]1CSSC[C@@H](C(N)=O)NC(=O)[C@H](Cc2c[nH]c3ccccc23)NC(=O)[C@H](CCCNC(=N)N)NC(=O)[C@@H](Cc2ccccc2)NC(=O)[C@H](Cc2c[nH]cn2)NC(=O)[C@@H](CC(C)C)NC1=O [Compound 1, Ac-Arg-cyclo[Cys-D-Leu-His-D-Phe-Arg-Trp-Cys]-NH2]
MC1R
  Ratios of EC50 values MC ¼: 0.68
MC1R; [1]
  EC50: 0.47 nM
MC4R; [2]
  EC50: 0.7 nM
MC5R
  Ratios of EC50 values MC 5/4: 130
MC5R; [3]
  EC50: 91 nM
MC3R
  Ratios of EC50 values MC ¾: 1.13
MC3R; [4]
  EC50: 0.00079 µM

## CC[C@@H](C)[C@H]1NC(=O)[C@@H](NC(=O)[C@H](CCCNC(=N)N)NC(C)=O)CSSC[C@@H](C(N)=O)NC(=O)[C@H](Cc2c[nH]c3ccccc23)NC(=O)[C@H](CCCNC(=N)N)NC(=O)[C@@H](Cc2ccccc2)NC(=O)[C@H](Cc2c[nH]cn2)NC1=O [Compound 2, Ac-Arg-cyclo[Cys-D-Ile-His-D-Phe-Arg-Trp-Cys]-NH2]
MC1R
  Ratios of EC50 values MC ¼: 0.69
MC1R; [1]
  EC50: 0.69 nM
MC4R; [2]
  EC50: 1 nM
MC5R
  Ratios of EC50 values MC 5/4: 420
MC5R; [3]
  EC50: 420 nM
MC3R
  Ratios of EC50 values MC ¾: 0.96
MC3R; [4]
  EC50: 0.00096 µM

## CC(=O)N[C@@H](CCCNC(=N)N)C(=O)N[C@H]1CSSC[C@@H](C(N)=O)NC(=O)[C@H](Cc2c[nH]c3ccccc23)NC(=O)[C@H](CCCNC(=N)N)NC(=O)[C@@H](Cc2ccccc2)NC(=O)[C@H](Cc2c[nH]cn2)NC(=O)[C@@H](C(C)(C)C)NC1=O [Compound 3, Ac-Arg-cyclo[Cys-D-Tle-His-D-Phe-Arg-Trp-Cys]-NH2]
MC1R
  Ratios of EC50 values MC ¼: 1
MC1R; [1]
  EC50: 1 nM
MC4R; [2]
  EC50: 0.7 nM
MC5R
  Ratios of EC50 values MC 5/4: 930
MC5R; [3]
  EC50: 672 nM
MC3R
  Ratios of EC50 values MC ¾: 1
MC3R; [4]
  EC50: 0.0007 µM

## CC(=O)N[C@@H](CCCNC(=N)N)C(=O)N[C@H]1CSSC[C@@H](C(N)=O)NC(=O)[C@H](Cc2c[nH]c3ccccc23)NC(=O)[C@H](CCCNC(=N)N)NC(=O)[C@@H](Cc2ccccc2)NC(=O)[C@H](Cc2c[nH]cn2)NC(=O)[C@@H](C(C)C)NC1=O [Compound 4, Ac-Arg-cyclo[Cys-D-Val-His-D-Phe-Arg-Trp-Cys]-NH2]
MC1R
  Ratios of EC50 values MC ¼: 0.93
MC1R; [1]
  EC50: 1.25 nM
MC4R; [2]
  EC50: 1.34 nM
MC5R
  Ratios of EC50 values MC 5/4: 584
MC5R; [3]
  EC50: 782 nM
MC3R
  Ratios of EC50 values MC ¾: 1.19
MC3R; [4]
  EC50: 0.00159 µM

## CC(=O)N[C@@H](CCCNC(=N)N)C(=O)N[C@H]1CSSC[C@@H](C(N)=O)NC(=O)[C@H](Cc2c[nH]c3ccccc23)NC(=O)[C@H](CCCNC(=N)N)NC(=O)[C@@H](Cc2ccccc2)NC(=O)[C@H](Cc2cncn2C)NC(=O)[C@@H](C)NC1=O [Compound 5, Ac-Arg-cyclo[Cys-D-Ala-His(3-Me)-D-Phe-Arg-Trp-Cys]-NH2]
MC1R
  EC50: 4.1 nM
  Ratios of EC50 values MC ¼: 4
MC4R
  EC50: 1.15 nM
MC5R
  EC50: 1080 nM
  Ratios of EC50 values MC 5/4: 945
MC3R
  EC50: 0.406 µM
  Ratios of EC50 values MC ¾: 350

## CC(=O)N[C@@H](CCCNC(=N)N)C(=O)N[C@H]1CSSC[C@@H](C(N)=O)NC(=O)[C@H](Cc2c[nH]c3ccccc23)NC(=O)[C@H](CCCNC(=N)N)NC(=O)[C@@H](Cc2ccccc2)NC(=O)[C@H](Cc2cn(C)cn2)NC(=O)[C@@H](C)NC1=O [Compound 6, Ac-Arg-cyclo[Cys-D-Ala-His(1-Me)-D-Phe-Arg-Trp-Cys]-NH2]
MC1R
  EC50: 30.4 nM
  Ratios of EC50 values MC ¼: 40
MC4R
  EC50: 0.7 nM
MC5R
  EC50: 467 nM
  Ratios of EC50 values MC 5/4: 662
MC3R
  EC50: 0.0043 µM
  Ratios of EC50 values MC ¾: 6

## CC(=O)N[C@@H](CCCNC(=N)N)C(=O)N[C@H]1CSSC[C@@H](C(N)=O)NC(=O)[C@H](Cc2c[nH]c3ccccc23)NC(=O)[C@H](CCCNC(=N)N)NC(=O)[C@@H](Cc2ccccc2)NC(=O)[C@H](Cc2c[nH]c3ccccc23)NC(=O)[C@@H](C)NC1=O [Compound 7, Ac-Arg-cyclo[Cys-D-Ala-Trp-D-Phe-Arg-Trp-Cys ]-NH2] (Ac-RC[dA]W[dF]RWC-NH2; disulfide 2-8)
MC1R
  Ratios of EC50 values MC ¼: 8
MC1R; [1]
  EC50: 273 nM
MC4R; [2]
  EC50: 34 nM
MC5R
  Ratios of EC50 values MC 5/4: 7
MC5R; [3]
  EC50: 259 nM
MC3R
  Ratios of EC50 values MC ¾: >290
MC3R; [5]
  EC50: > 10 µM

## CC(=O)N[C@@H](CCCNC(=N)N)C(=O)N[C@H]1CSSC[C@@H](C(N)=O)NC(=O)[C@H](Cc2c[nH]c3ccccc23)NC(=O)[C@H](CCCNC(=N)N)NC(=O)[C@@H](Cc2ccccc2)NC(=O)[C@H](CCC(N)=O)NC(=O)[C@@H](C)NC1=O [Compound 8, Ac-Arg-cyclo[Cys-D-Ala-Gln-D-Phe-Arg-Trp-Cys]-NH2] (Ac-RC[dA]Q[dF]RWC-NH2; disulfide 2-8)
MC1R
  Ratios of EC50 values MC ¼: 40
MC1R; [1]
  EC50: 71 nM
MC4R; [2]
  EC50: 1.6 nM
MC5R
  Ratios of EC50 values MC 5/4: 155
MC5R; [3]
  EC50: 255 nM
MC3R
  Ratios of EC50 values MC ¾: 5
MC3R; [4]
  EC50: 0.0086 µM

## CC(=O)N[C@@H](CCCNC(=N)N)C(=O)N[C@H]1CSSC[C@@H](C(N)=O)NC(=O)[C@H](Cc2c[nH]c3ccccc23)NC(=O)[C@H](CCCNC(=N)N)NC(=O)[C@@H](Cc2ccccc2)NC(=O)[C@H](CC(N)=O)NC(=O)[C@@H](C)NC1=O [Compound 9, Ac-Arg-cyclo[Cys-D-Ala-Asn-D-Phe-Arg-Trp-Cys]-NH2] (Ac-RC[dA]N[dF]RWC-NH2; disulfide 2-8)
MC1R
  Ratios of EC50 values MC ¼: 90
MC1R; [1]
  EC50: 248 nM
MC4R; [2]
  EC50: 3 nM
MC5R
  Ratios of EC50 values MC 5/4: 530
MC5R; [3]
  EC50: 1490 nM
MC3R
  Ratios of EC50 values MC ¾: 30
MC3R; [4]
  EC50: 0.081 µM

## CC(=O)N[C@@H](CCCNC(=N)N)C(=O)N[C@H]1CSSC[C@@H](C(N)=O)NC(=O)[C@H](Cc2c[nH]c3ccccc23)NC(=O)[C@H](CCCNC(=N)N)NC(=O)[C@@H](Cc2ccccc2)NC(=O)[C@H](CCCNC(=N)N)NC(=O)[C@@H](C)NC1=O [Compound 10, Ac-Arg-cyclo[Cys-D-Ala-Arg-D-Phe-Arg-Trp-Cys]-NH2] (Ac-RC[dA]R[dF]RWC-NH2; disulfide 2-8)
MC1R
  Ratios of EC50 values MC ¼: 2.31
MC1R; [1]
  EC50: 6.2 nM
MC4R; [2]
  EC50: 2.7 nM
MC3R
  Ratios of EC50 values MC ¾: 1.45
MC3R; [4]
  EC50: 0.0039 µM

## CC(=O)N[C@@H](CCCNC(=N)N)C(=O)N[C@H]1CSSC[C@@H](C(N)=O)NC(=O)[C@H](Cc2c[nH]c3ccccc23)NC(=O)[C@H](CCCNC(=N)N)NC(=O)[C@@H](Cc2ccccc2)NC(=O)[C@H](Cc2ccc(O)cc2)NC(=O)[C@@H](C)NC1=O [Compound 11, Ac-Arg-cyclo[Cys-D-Ala-Tyr-D-Phe-Arg-Trp-Cys]-NH2] (Ac-RC[dA]Y[dF]RWC-NH2; disulfide 2-8)
MC1R
  Ratios of EC50 values MC ¼: 6.67
MC1R; [1]
  EC50: 301 nM
MC4R; [2]
  EC50: 45.1 nM
MC3R
  Ratios of EC50 values MC ¾: >22.2
MC3R; [4]
  EC50: > 1 µM

## CC(=O)N[C@@H](CCCNC(=N)N)C(=O)N[C@H]1CSSC[C@@H](C(N)=O)NC(=O)[C@H](Cc2c[nH]c3ccccc23)NC(=O)[C@H](CCCNC(=N)N)NC(=O)[C@@H](Cc2ccccc2)NC(=O)[C@@H]2CCCN2C(=O)[C@@H](C)NC1=O [Compound 13, Ac-Arg-cyclo[Cys-D-Ala-Pro-D-Phe-Arg-Trp-Cys]-NH2] (Ac-RC[dA]P[dF]RWC-NH2; disulfide 2-8)
MC1R
  Ratios of EC50 values MC ¼: 5
MC1R; [1]
  EC50: 280 nM
MC4R; [2]
  EC50: 56 nM
MC5R
  Ratios of EC50 values MC 5/4: 13
MC5R; [3]
  EC50: 707 nM
MC3R
  Ratios of EC50 values MC ¾: >200
MC3R; [5]
  EC50: > 10 µM

## CC(=O)N[C@@H](CCCNC(=N)N)C(=O)N[C@H]1CSSC[C@@H](C(N)=O)NC(=O)[C@H](Cc2c[nH]c3ccccc23)NC(=O)[C@H](CCCNC(=N)N)NC(=O)[C@@H](Cc2ccc(F)cc2)NC(=O)[C@@H]2CCCN2C(=O)[C@@H](C)NC1=O [Compound 14, Ac-Arg-cyclo[Cys-D-Ala-Pro-D-Phe(p-F)-Arg-Trp-Cys]-NH2] (Ac-RC[dA]P[dPhe(4-F)]RWC-NH2; disulfide 2-8)
MC1R
  Ratios of EC50 values MC ¼: 7
MC1R; [1]
  EC50: 169 nM
MC4R; [2]
  EC50: 24 nM
MC5R
  Ratios of EC50 values MC 5/4: 12
MC5R; [3]
  EC50: 283 nM
MC3R
  Ratios of EC50 values MC ¾: >400
MC3R; [5]
  EC50: > 10 µM

## CC(=O)N[C@@H](CCCNC(=N)N)C(=O)N[C@H]1CCSSC[C@@H](C(N)=O)NC(=O)[C@H](Cc2c[nH]c3ccccc23)NC(=O)[C@H](CCCNC(=N)N)NC(=O)[C@@H](Cc2ccccc2)NC(=O)[C@H](C)NC1=O [Compound 15, Ac-Arg-cyclo[hCys-Ala-D-Phe-Arg-Trp-Cys]-NH2] (Ac-R[hCys]A[dF]RWC-NH2; disulfide 2-7)
MC1R
  Ratios of EC50 values MC ¼: 15
MC1R; [1]
  EC50: 4 nM
MC4R; [2]
  EC50: 0.26 nM
MC5R
  Ratios of EC50 values MC 5/4: 161
MC5R; [3]
  EC50: 42 nM
MC3R
  Ratios of EC50 values MC ¾: 3.8
MC3R; [4]
  EC50: 0.001 µM
